Measurements: article PMC5423974 (European Journal of Clinical Pharmacology, 2017)

Key:
[1] = system: Breast Cancer Resistance Protein (BCRP); set-up: method as in earlier work; conditions: ref 1 Report nos. Be000021–21 and D6244 KMN036, data on file, AstraZeneca; cited from earlier work
ABCG2 = experiment: Pharmacogenetic association of genetic variants with dose-normalized PK (linear regression, additive model; random effects meta-analysis); type: in vivo, human
Description: (§1) Five of the six genetic variants analyzed (CYP2C19*2, CYP2C19*3, CYP2C19*17, UGT1A1*6, ABCG2 421C > A) were single nucleotide polymorphisms while one genetic variant was a tandem repeat (UGT1A1*28.) Genotyping of the variants was performed using a Luminex CYP2C19 assay (for CYP2C19*2, CYP2C19*3 and CYP2C19*17), Taqman assays (for UGT1A1*6 and ABCG2 421C > A), and fragment analysis (for UGT1A1*28).
(§2) Each genetic variant was tested for any association with dose-normalized AUC, AUC0–12 or Cmax, using linear regression under an additive genetic model (i.e. phenotypic response per additional copy of the variant allele, where 0, 1 or 2 copies can be present at each locus). For each PK parameter Bonferroni’s correction was used to control for multiple testing when assessing statistical significance. A p value below 0.008 (p < 0.05 with Bonferoni correction for 6 tests) was considered statistically significant. Given the variation in frequency of the variant alleles, analyses were performed stratified by ethnic group (Asian, White, Black) across the studies. A combined estimate across populations was obtained using random effects meta-analysis to allow for between-population heterogeneity.
(§3) Genotype distributions were tested for deviation from Hardy-Weinberg equilibrium using Chi-squared tests. All pharmacogenetic analyses were performed using either StataSE version 14.1 or R statistical software version 3.2.2.

CYP2C19 = experiment: as above; type: in vivo, human
Description: as §1, §2, §3

UGT1A1 = experiment: as above; type: in vivo, human
Description: as §1, §2, §3

[2] = combined across ethnicities, random effects meta-analysis, N 87
[3] = CYP219C*2, combined across ethnicities, random effects meta-analysis, N 87
[4] = CYP219C*3, combined analysis, N 42
[5] = CYP219C*17, combined across ethnicities, random effects meta-analysis, N 87
[6] = UGTA1*6, combined analysis, N 42
[7] = UGTA1*28/37, combined across ethnicities, random effects meta-analysis, N 87

Cn1cnc2c(F)c(Nc3ccc(Br)cc3Cl)c(C(=O)NOCCO)cc21 [selumetinib, Selumetinib]
substrate of transporter protein [1]: substrate | Beta, per-allele change in DN AUC (ABCG2; Black, N 21): 0.018 log ng.h/mL/mg | Beta, per-allele change in DN AUC(0–12) (ABCG2; Black, N 21): -0.020 log ng.h/mL/mg | Beta, per-allele change in DN Cmax (ABCG2; Black, N 21): -0.463 log ng/mL/mg | Beta, per-allele change in DN AUC (ABCG2; East Asian, N 42): 0.042 log ng.h/mL/mg | Beta, per-allele change in DN AUC(0–12) (ABCG2; East Asian, N 42): 0.043 log ng.h/mL/mg | Beta, per-allele change in DN Cmax (ABCG2; East Asian, N 42): 0.104 log ng/mL/mg | Beta, per-allele change in DN AUC (ABCG2; White, N 24): -0.116 log ng.h/mL/mg | Beta, per-allele change in DN AUC(0–12) (ABCG2; White, N 24): -0.093 log ng.h/mL/mg | Beta, per-allele change in DN Cmax (ABCG2; White, N 24): -0.119 log ng/mL/mg | Beta, per-allele effect on DN AUC (ABCG2; [2]): 0.028 log ng.h/mL/mg | Beta, per-allele effect on DN AUC(0–12) (ABCG2; [2]): 0.029 log ng.h/mL/mg | Beta, per-allele effect on DN Cmax (ABCG2; [2]): 0.015 log ng/mL/mg | Beta, per-allele change in DN AUC (CYP2C19; CYP219C*2, Black, N 21): -0.043 log ng.h/mL/mg | Beta, per-allele change in DN AUC(0–12) (CYP2C19; CYP219C*2, Black, N 21): -0.010 log ng.h/mL/mg | Beta, per-allele change in DN Cmax (CYP2C19; CYP219C*2, Black, N 21): -0.110 log ng/mL/mg | Beta, per-allele change in DN AUC (CYP2C19; CYP219C*2, East Asian, N 42): 0.009 log ng.h/mL/mg | Beta, per-allele change in DN AUC(0–12) (CYP2C19; CYP219C*2, East Asian, N 42): 0.011 log ng.h/mL/mg | Beta, per-allele change in DN Cmax (CYP2C19; CYP219C*2, East Asian, N 42): -0.064 log ng/mL/mg | Beta, per-allele change in DN AUC (CYP2C19; CYP219C*2, White, N 24): 0.198 log ng.h/mL/mg | Beta, per-allele change in DN AUC(0–12) (CYP2C19; CYP219C*2, White, N 24): 0.242 log ng.h/mL/mg | Beta, per-allele change in DN Cmax (CYP2C19; CYP219C*2, White, N 24): 0.167 log ng/mL/mg | Beta, per-allele effect on DN AUC (CYP2C19; [3]): 0.042 log ng.h/mL/mg | Beta, per-allele effect on DN AUC(0–12) (CYP2C19; [3]): 0.069 log ng.h/mL/mg | Beta, per-allele effect on DN Cmax (CYP2C19; [3]): -0.010 log ng/mL/mg | Beta, per-allele change in DN AUC (CYP2C19; CYP219C*3, East Asian, N 42): 0.063 log ng.h/mL/mg | Beta, per-allele change in DN AUC(0–12) (CYP2C19; CYP219C*3, East Asian, N 42): 0.096 log ng.h/mL/mg | Beta, per-allele change in DN Cmax (CYP2C19; CYP219C*3, East Asian, N 42): 0.122 log ng/mL/mg | Beta, per-allele effect on DN AUC (CYP2C19; [4]): 0.063 log ng.h/mL/mg | Beta, per-allele effect on DN AUC(0–12) (CYP2C19; [4]): 0.096 log ng.h/mL/mg | Beta, per-allele effect on DN Cmax (CYP2C19; [4]): 0.122 log ng/mL/mg | Beta, per-allele change in DN AUC (CYP2C19; CYP219C*17, Black, N 21): 0.090 log ng.h/mL/mg | Beta, per-allele change in DN AUC(0–12) (CYP2C19; CYP219C*17, Black, N 21): 0.089 log ng.h/mL/mg | Beta, per-allele change in DN Cmax (CYP2C19; CYP219C*17, Black, N 21): 0.086 log ng/mL/mg | Beta, per-allele change in DN AUC (CYP2C19; CYP219C*17, East Asian, N 42): -0.104 log ng.h/mL/mg | Beta, per-allele change in DN AUC(0–12) (CYP2C19; CYP219C*17, East Asian, N 42): -0.139 log ng.h/mL/mg | Beta, per-allele change in DN Cmax (CYP2C19; CYP219C*17, East Asian, N 42): -0.142 log ng/mL/mg | Beta, per-allele change in DN AUC (CYP2C19; CYP219C*17, White, N 24): -0.116 log ng.h/mL/mg | Beta, per-allele change in DN AUC(0–12) (CYP2C19; CYP219C*17, White, N 24): -0.127 log ng.h/mL/mg | Beta, per-allele change in DN Cmax (CYP2C19; CYP219C*17, White, N 24): 0.041 log ng/mL/mg | Beta, per-allele effect on DN AUC (CYP2C19; [5]): 0.004 log ng.h/mL/mg | Beta, per-allele effect on DN AUC(0–12) (CYP2C19; [5]): -0.014 log ng.h/mL/mg | Beta, per-allele effect on DN Cmax (CYP2C19; [5]): 0.037 log ng/mL/mg | Beta, per-allele change in DN AUC (UGT1A1; UGTA1*6, East Asian, N 42): 0.061 log ng.h/mL/mg | Beta, per-allele change in DN Cmax (UGT1A1; UGTA1*6, East Asian, N 42): 0.073 log ng/mL/mg | Beta, per-allele effect on DN AUC (UGT1A1; [6]): 0.061 log ng.h/mL/mg | Beta, per-allele effect on DN Cmax (UGT1A1; [6]): 0.073 log ng/mL/mg | Beta, per-allele change in DN AUC (UGT1A1; UGTA1*28/37, Black, N 21): 0.052 log ng.h/mL/mg | Beta, per-allele change in DN Cmax (UGT1A1; UGTA1*28/37, Black, N 21): 0.048 log ng/mL/mg | Beta, per-allele change in DN AUC (UGT1A1; UGTA1*28/37, East Asian, N 42): -0.153 log ng.h/mL/mg | Beta, per-allele change in DN Cmax (UGT1A1; UGTA1*28/37, East Asian, N 42): -0.152 log ng/mL/mg | Beta, per-allele change in DN AUC (UGT1A1; UGTA1*28/37, White, N 24): -0.033 log ng.h/mL/mg | Beta, per-allele change in DN Cmax (UGT1A1; UGTA1*28/37, White, N 24): 0.190 log ng/mL/mg | Beta, per-allele effect on DN AUC (UGT1A1; [7]): -0.055 log ng.h/mL/mg | Beta, per-allele effect on DN Cmax (UGT1A1; [7]): 0.016 log ng/mL/mg
